Measured values published in ChEMBL document CHEMBL4052716, “Discovery and development of a novel class of phenoxyacetyl amides as highly potent TRPM8 agonists for use as cooling agents” (Bioorg Med Chem Lett, 2017).
Values after ≈ are worked out from the molar mass of the structure shown. Active and inactive are the calls of the source. No cut-off for these calls is given here.

How the values were obtained:
[1] = tested on: Homo sapiens; test: In vivo agonist activity at human TRPM8 in trained human subjects assessed as time duration of perceived cooling effect at 45 uM dosed as aqueous solution; assay type: functional
[2] = target: T1, Transient receptor potential cation channel subfamily M member 8 (Homo sapiens, UniProt Q7Z2W7); test: Agonist activity at human TRPM8 expressed in HEK293 cells assessed as increase in intracellular calcium level after 15 mins by Fluo-3-AM dye-based fluorescence assay; assay type: cell-based; settings: read-out: EC50
Target sequence in this assay (Q7Z2W7 whole entry): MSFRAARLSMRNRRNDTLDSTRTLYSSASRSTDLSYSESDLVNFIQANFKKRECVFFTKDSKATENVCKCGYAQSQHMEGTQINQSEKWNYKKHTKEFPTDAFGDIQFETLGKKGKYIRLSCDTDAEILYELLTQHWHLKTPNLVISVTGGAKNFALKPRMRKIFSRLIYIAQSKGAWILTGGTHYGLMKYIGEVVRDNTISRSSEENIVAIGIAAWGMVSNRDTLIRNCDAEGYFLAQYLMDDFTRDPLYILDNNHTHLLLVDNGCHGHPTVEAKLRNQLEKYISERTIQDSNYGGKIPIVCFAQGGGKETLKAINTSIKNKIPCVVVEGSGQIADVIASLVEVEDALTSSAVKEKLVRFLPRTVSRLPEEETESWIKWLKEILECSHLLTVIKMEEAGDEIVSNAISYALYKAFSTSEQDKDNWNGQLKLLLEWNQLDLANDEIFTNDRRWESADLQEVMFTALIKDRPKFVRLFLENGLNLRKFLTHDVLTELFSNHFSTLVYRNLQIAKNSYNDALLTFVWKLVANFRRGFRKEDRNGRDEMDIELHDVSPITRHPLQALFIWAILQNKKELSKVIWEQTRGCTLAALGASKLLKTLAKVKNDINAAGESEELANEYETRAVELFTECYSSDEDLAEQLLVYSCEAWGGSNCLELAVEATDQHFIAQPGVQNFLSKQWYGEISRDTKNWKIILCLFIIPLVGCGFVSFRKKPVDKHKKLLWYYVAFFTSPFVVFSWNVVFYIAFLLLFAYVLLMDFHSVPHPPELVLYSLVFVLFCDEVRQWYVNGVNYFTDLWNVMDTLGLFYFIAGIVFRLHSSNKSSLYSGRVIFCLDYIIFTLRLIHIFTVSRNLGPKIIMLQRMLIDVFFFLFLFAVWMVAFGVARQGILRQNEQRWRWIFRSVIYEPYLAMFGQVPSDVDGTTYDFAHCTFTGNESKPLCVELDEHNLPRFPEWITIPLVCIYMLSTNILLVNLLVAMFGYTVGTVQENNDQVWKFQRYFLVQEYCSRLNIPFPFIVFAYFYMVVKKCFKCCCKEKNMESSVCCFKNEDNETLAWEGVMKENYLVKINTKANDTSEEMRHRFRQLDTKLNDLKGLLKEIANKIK

[3] = Stability of the compound in pH 7.1 phosphoric acid assessed as compound remaining after heating at 100 degC for 24 hrs; assay type: physicochemical; settings: read-out: Stability
[4] = target: T1, Transient receptor potential cation channel subfamily M member 8; test: Potency index, ratio of WS-3 EC50 to compound EC50 for human TRPM8 receptor
Target sequence in this assay (Q7Z2W7 whole entry, looked up): as the sequence (Q7Z2W7 whole entry) above

[5] = Stability of the compound in pH 2.8 citric acid assessed as compound remaining after heating at 100 degC for 24 hrs; assay type: physicochemical; settings: read-out: Stability
[6] = Stability of the compound in pH 4.0 citric acid assessed as compound remaining after heating at 100 degC for 24 hrs; assay type: physicochemical; settings: read-out: Stability
[7] = Permeability of the compound assessed as drug transport by PAMPA; assay type: physicochemical
[8] = species: Homo sapiens; test: Induction of off-taste response in rained human subjects during cooling sensation study
[9] = Thermodynamic solubility of the compound in pH 7.1 phosphoric buffer; assay type: physicochemical; settings: read-out: Therm_solubility
[10] = tested on: Homo sapiens; test: In vivo agonist activity at human TRPM8 in trained human subjects assessed as concentration required to deliver cooling sensation equivalent to 45 uM WS-3 by measuring cooling intensity; assay type: functional
[11] = tested on: Homo sapiens; test: In vivo agonist activity at human TRPM8 in trained human subjects assessed as time duration of perceived cooling effect at 3 uM dosed as aqueous solution; assay type: functional
[12] = species: Homo sapiens; test: Induction of off-taste response in rained human subjects assessed as induction of bitterness during cooling sensation study

Row | EC50 [2] [nM] | remaining at 24 h [3] [%] | Ratio EC50 [4] | remaining at 24 h [5] [%] | remaining at 24 h [6] [%] | Drug transport [7] [%] | solubility thermodynamic [9] [µM] | SMILES | Time [1] [min] | Activity [8] | Activity [10] | Time [11] [min] | Activity [12]
1 | 0.2 | – | 35800 | – | – | 10 | 189 (≈ 61.9 µg/mL) | Cc1ccc(OCC(=O)N(Cc2cccs2)c2ccn[nH]2)cc1 | – | Non-Toxic | 3 µM | 60 | –
2 | 422 | – | 14 | – | – | – | – | Cc1ccc(OCC(=O)N(Cc2cccs2)c2ccnn2C)cc1 | – | – | inactive | – | Toxic
3 | 0.004 | – | > 1e+06 | – | – | 5 | 3.7 (≈ 1.2 µg/mL) | Cc1ccc(/C=C/C(=O)N(Cc2cccs2)c2ccn[nH]2)cc1 | – | – | 3 µM | – | –

Continued, molecule first:

Row | SMILES | EC50 [2] [nM] | remaining at 24 h [3] [%] | Ratio EC50 [4] | remaining at 24 h [5] [%] | remaining at 24 h [6] [%] | Drug transport [7] [%] | solubility thermodynamic [9] [µM] | Time [1] [min] | Activity [8] | Activity [10] | Time [11] [min] | Activity [12]
4 | CCNC(=O)[C@@H]1C[C@H](C)CC[C@H]1C(C)C | – | – | – | – | – | – | – | 25 | – | – | – | –
5 | Cc1ccc(OCC(=O)N(Cc2cccs2)c2ncco2)cc1 | 0.3 | 0.1 | 120000 | 14.9 | 73.7 | – | – | – | – | – | – | –
6 | Cc1ccc(OCC(=O)N(Cc2cccs2)c2ccon2)cc1 | 2 | 0.5 | 3440 | 90.8 | 78.1 | – | – | – | – | – | – | –
